{"source": "ChEMBL document CHEMBL5233255", "about": "“Natural and nature-inspired stilbenoids as antiviral agents” (Eur J Med Chem, 2020)", "key": {"[1]": {"test": "Inhibition of HIV-1 integrase catalysed 3' processing activity by densitometric analysis", "set-up": "species or system Human immunodeficiency virus 1"}, "[2]": {"test": "Inhibition of recombinant HIV-1 integrase catalysed strand transfer activity measured after 60 mins by electrochemiluminescent plate-based assay", "set-up": "species or system Human immunodeficiency virus 1"}, "[3]": {"tested_on": "Human immunodeficiency virus 1", "test": "Antiviral activity against HIV-1 infected in HEK293T cells", "format": "functional, organism-based", "details": "Human immunodeficiency virus 1, HEK-293T"}, "[4]": {"test": "Cytotoxicity against HEK293T cells", "format": "toxicity, cell-based, HEK-293T", "details": "human, read-out: TC50 (the source's name)"}, "[5]": {"tested_on": "Influenza A virus", "test": "Antiviral activity against influenza A virus A/PR/8/34 (H1N1) infected in human A549 cells assessed as inhibition of RANTES production incubated for 48 hrs by ELISA", "format": "functional, organism-based", "details": "A549, 48 h"}, "[6]": {"test": "Cytotoxicity against human A549 cells assessed as reduction in cell viability by Alamar blue assay", "format": "toxicity, cell-based"}, "[7]": {"test": "Cytotoxicity against human C8166 cells assessed as inhibition of cell growth by MTT assay", "format": "toxicity, cell-based"}, "[8]": {"test": "Therapeutic index, ratio of CC50 for cytotoxicity against human C8166 cells to EC50 for antiviral activity against HIV-1 infected in C8166 cells", "format": "toxicity, cell-based", "details": "read-out: Ratio CC50/EC50"}, "[9]": {"tested_on": "Human immunodeficiency virus 1", "test": "Antiviral activity against HIV-1 infected in human C8166 cells assessed as inhibition of viral replication", "format": "functional, organism-based", "details": "Human immunodeficiency virus 1, C8166"}, "[10]": {"tested_on": "Influenza A virus", "test": "Antiviral activity against influenza A virus A/Guangdong/243/72 ([…]) infected in MDCK cells assessed as inhibition of virus-induced cytopathic effect", "format": "functional, organism-based"}}, "data": [{"smiles": "Nc1ccc(/C=C/c2ccc(N)cc2S(=O)(=O)O)c(S(=O)(=O)O)c1", "values": [{"measurement": "IC50", "setting": "[1]", "result": "> 111", "unit": "µM"}, {"measurement": "IC50", "setting": "[2]", "result": "> 111", "unit": "µM"}]}, {"smiles": "Oc1cc(O)cc(-c2ccc3cc(O)ccc3c2)c1", "values": [{"measurement": "EC50", "setting": "[3]", "result": "> 75", "unit": "µM"}]}, {"smiles": "O=C(/C=C/c1ccc(O)cc1)c1cc(O)cc(O)c1", "values": [{"measurement": "EC50", "setting": "[3]", "result": "> 75", "unit": "µM"}]}, {"smiles": "Oc1ccc(-n2cc(-c3cc(O)cc(O)c3)nn2)cc1", "values": [{"measurement": "EC50", "setting": "[3]", "result": "> 75", "unit": "µM"}]}, {"smiles": "O=[N+]([O-])c1ccc(/C=C/c2ccc([N+](=O)[O-])cc2S(=O)(=O)O)c(S(=O)(=O)O)c1", "values": [{"measurement": "IC50", "setting": "[1]", "result": "> 111", "unit": "µM"}, {"measurement": "IC50", "setting": "[2]", "result": "> 111", "unit": "µM"}]}, {"smiles": "Oc1cc(O)cc(-c2ccc(-c3ccncc3)cc2)c1", "values": [{"measurement": "EC50", "setting": "[3]", "result": "> 100", "unit": "µM"}]}, {"smiles": "Oc1cc(O)cc(-c2ccc3cnccc3c2)c1", "values": [{"measurement": "EC50", "setting": "[3]", "result": "> 75", "unit": "µM"}]}, {"smiles": "Oc1ccc(-c2c(-c3cc(O)cc(O)c3)oc3ccccc23)cc1", "values": [{"measurement": "CC50", "setting": "[4]", "result": 84.8, "unit": "µM"}, {"measurement": "EC50", "setting": "[3]", "result": 35, "unit": "µM"}]}, {"smiles": "Oc1ccc(-c2c(-c3cc(O)cc(O)c3)sc3ccccc23)cc1", "values": [{"measurement": "CC50", "setting": "[4]", "result": 131, "unit": "µM"}, {"measurement": "EC50", "setting": "[3]", "result": 34.4, "unit": "µM"}]}, {"smiles": "Oc1ccc(-c2oc3ccccc3c2-c2cc(O)cc(O)c2)cc1", "values": [{"measurement": "CC50", "setting": "[4]", "result": 108, "unit": "µM"}, {"measurement": "EC50", "setting": "[3]", "result": 65.1, "unit": "µM"}]}, {"smiles": "Oc1ccc(-c2sc3ccccc3c2-c2cc(O)cc(O)c2)cc1", "values": [{"measurement": "CC50", "setting": "[4]", "result": 118, "unit": "µM"}, {"measurement": "EC50", "setting": "[3]", "result": 45.1, "unit": "µM"}]}, {"smiles": "Oc1ccc(-c2ncc(-c3cc(O)cc(O)c3)cn2)cc1", "values": [{"measurement": "EC50", "setting": "[3]", "result": "> 75", "unit": "µM"}]}, {"smiles": "Oc1ccc(-c2cnc(-c3cc(O)cc(O)c3)nc2)cc1", "values": [{"measurement": "EC50", "setting": "[3]", "result": "> 75", "unit": "µM"}]}, {"smiles": "Oc1ccc(-c2cc(-c3cc(O)cc(O)c3)on2)cc1", "values": [{"measurement": "EC50", "setting": "[3]", "result": "> 75", "unit": "µM"}]}, {"smiles": "Oc1ccc(-c2ccc(-c3cc(O)cc(O)c3)cc2)cc1", "values": [{"measurement": "CC50", "setting": "[4]", "result": 179, "unit": "µM"}, {"measurement": "EC50", "setting": "[3]", "result": 8.8, "unit": "µM"}]}, {"smiles": "O=Cc1ccc2c(c1)C(c1cc(O)cc3c1[C@H](c1cc(O)cc(O)c1)[C@@H](c1ccc(O)cc1)O3)[C@H](c1ccc(O)cc1)O2", "note": "(stereo partly specified)", "values": [{"measurement": "EC50", "setting": "[5]", "result": 8.48, "unit": "µM"}, {"measurement": "CC50", "setting": "[6]", "result": "> 400", "unit": "µM"}]}, {"smiles": "O=S(=O)([O-])O[C@H]1[C@H](O)[C@@H](O)[C@H](Oc2cc(O)cc(/C=C\\c3ccc(O)cc3)c2)O[C@@H]1CO.[Na+]", "values": [{"measurement": "CC50", "setting": "[7]", "result": 98.8, "unit": "µg/mL"}, {"measurement": "selectivity ratio", "setting": "[8]", "result": 1.17}, {"measurement": "EC50", "setting": "[9]", "result": 84.8, "unit": "µg/mL"}]}, {"smiles": "O=S(=O)([O-])Oc1cc(/C=C/c2ccc(O)cc2)cc(O[C@@H]2O[C@H](CO)[C@@H](O)[C@H](O)[C@H]2O)c1.[Na+]", "values": [{"measurement": "CC50", "setting": "[7]", "result": 527, "unit": "µg/mL"}, {"measurement": "selectivity ratio", "setting": "[8]", "result": 5.87}, {"measurement": "EC50", "setting": "[9]", "result": 89.7, "unit": "µg/mL"}]}, {"smiles": "OC[C@H]1O[C@@H](Oc2cc(O)cc(/C=C/c3ccc(O)cc3)c2O[C@@H]2O[C@H](CO)[C@@H](O)[C@H](O)[C@H]2O)[C@H](O)[C@@H](O)[C@@H]1O", "values": [{"measurement": "CC50", "setting": "[7]", "result": "> 200", "unit": "µg/mL"}, {"measurement": "selectivity ratio", "setting": "[8]", "result": "> 1.13"}, {"measurement": "EC50", "setting": "[9]", "result": 176, "unit": "µg/mL"}]}, {"smiles": "O=S(=O)([O-])O[C@H]1[C@H](Oc2cc(O)cc(/C=C/c3ccc(O)cc3)c2)O[C@H](CO)[C@@H](O)[C@@H]1O.[Na+]", "values": [{"measurement": "CC50", "setting": "[7]", "result": "> 2000", "unit": "µg/mL"}, {"measurement": "selectivity ratio", "setting": "[8]", "result": "> 13"}, {"measurement": "EC50", "setting": "[9]", "result": 153, "unit": "µg/mL"}]}, {"smiles": "Oc1ccc([C@@H]2c3c(O)cc(O)cc3[C@@H]3c4c(cc(O)c5c4[C@@H]2[C@H](c2ccc(O)cc2)[C@H]5c2cc(O)cc(O)c2)O[C@H]3c2ccc(O)cc2)cc1", "values": [{"measurement": "EC50", "setting": "[5]", "result": 0.57, "unit": "µM"}, {"measurement": "CC50", "setting": "[6]", "result": "> 1000", "unit": "µM"}]}, {"smiles": "O=S(=O)([O-])OC[C@H]1O[C@@H](Oc2cc(O)cc(/C=C/c3ccc(O)cc3)c2)[C@H](O)[C@@H](O)[C@@H]1O.[Na+]", "values": [{"measurement": "CC50", "setting": "[7]", "result": 746, "unit": "µg/mL"}, {"measurement": "selectivity ratio", "setting": "[8]", "result": "< 3.73"}, {"measurement": "EC50", "setting": "[9]", "result": "> 200", "unit": "µg/mL"}]}, {"smiles": "Oc1ccc(/C=C/c2cc(O)cc3c2[C@@H](c2cc(O)cc4c2[C@H](c2cc(O)cc5c2[C@@H](c2cc(O)cc(O)c2)[C@H](c2ccc(O)cc2)O5)[C@@H](c2ccc(O)cc2)O4)[C@H](c2ccc(O)cc2)O3)cc1", "values": [{"measurement": "CC50", "setting": "[6]", "result": 8.4, "unit": "µM"}]}, {"smiles": "O=S(=O)([O-])O[C@H]1[C@H](O)[C@@H](O)[C@H](Oc2cc(O)cc(/C=C/c3ccc(O)cc3)c2)O[C@@H]1CO.[Na+]", "values": [{"measurement": "CC50", "setting": "[7]", "result": 813, "unit": "µg/mL"}, {"measurement": "selectivity ratio", "setting": "[8]", "result": "< 4.06"}, {"measurement": "EC50", "setting": "[9]", "result": "> 200", "unit": "µg/mL"}]}, {"smiles": "O=S(=O)([O-])Oc1ccc(/C=C/c2cc(O)cc(O[C@@H]3O[C@H](CO)[C@@H](O)[C@H](O)[C@H]3O)c2)cc1.[Na+]", "values": [{"measurement": "CC50", "setting": "[7]", "result": "> 2000", "unit": "µg/mL"}, {"measurement": "EC50", "setting": "[9]", "result": "> 200", "unit": "µg/mL"}]}, {"smiles": "Oc1ccc(-c2ccc(-c3cc(O)cc(O)c3)[nH]2)cc1", "values": [{"measurement": "EC50", "setting": "[3]", "result": "> 75", "unit": "µM"}]}, {"smiles": "OC[C@H]1O[C@@H](Oc2cc(O)cc(/C=C/c3ccc(O)cc3)c2)[C@H](O)[C@@H](O)[C@@H]1O", "note": "[PICEID]", "values": [{"measurement": "CC50", "setting": "[7]", "result": "> 200", "unit": "µg/mL"}, {"measurement": "EC50", "setting": "[9]", "result": "> 200", "unit": "µg/mL"}]}, {"smiles": "NC(=O)c1ncn([C@@H]2O[C@H](CO)[C@@H](O)[C@H]2O)n1", "note": "[RIBAVIRIN]", "values": [{"measurement": "IC50", "setting": "[10]", "result": 5.54, "unit": "µg/mL"}]}]}
